Values joined by “and” are separate entries in the source; they are usually repeats but may differ in a detail not shown here. Identical values can stand only once. Like-named read-outs stand apart in the source and are kept apart here.
Experiments:
Type in all cases: in vivo
[1] = test system: New Zealand White rabbits
Method: On Days 1-31, animals received daily topical doses of the appropriate test article into the right eye. Animals were dosed four times per day, with doses administered 2 hours apart. Doses were administered using a calibrated 50-μL pipette. The eyelids were held close for 10 seconds immediately following dosing. The time of each dose administration was recorded.
Animals determined to be moribund were euthanized with an intravenous injection of commercial euthanasia solution.

[2] = test system: PGE2 in the aqueous humor; assay: Prostaglandin E2 (PGE2) measurement in aqueous humor, rabbit paracentesis model; conditions: for PGE2 in aqueous humor, statistical significance versus CTR: p<0.05; for PGE2 in aqueous humor, Mean / PGE2 in aqueous humor: second paracentesis; for PGE2 in aqueous humor: individual eyes
Method: (§1) Each rabbit was placed in a restraint device and tagged with the alphanumeric code. The formulations were instilled (50 μl) into the conjunctival sac of both eyes 180, 120, 90 and 30 min before the first paracentesis; then 15, 30, 90 min after the first paracentesis. To perform the first paracentesis the animals were anaesthetized by intravenous injection of 5 mg/kg Zoletil® (Virbac; 2.5 mg/kg tiletamine HCl and 2.5 mg/kg zolazepam HCl) and one drop of local anesthetic (Novesina®, Novartis) was administered to the eye. Anterior chamber paracentesis was performed with a 26 G needle attached to a tuberculin syringe; the needle was introduced into the anterior chamber through the cornea, taking care not to damage the tissues. Two hours after the ® first paracentesis, the animals were sacrificed with 0.4 ml Tanax® (Intervet International B.V.) and the second paracentesis was performed. About 100 μl of aqueous humor were removed at the second paracentesis. Aqueous humor was immediately split in four aliquots and stored at −80° C. until analysis. Then both eyes were enucleated and the iris-ciliary body was carefully excised, placed in polypropylene tubes, and stored at −80° C. until analysis.
For the quantitative determination of PGE2 in the aqueous humor we used the PGE2 Immunoassay kit (R&D Systems; Cat. No. KGE004; Lot. No. 240010). Eleven microliters or 16 μl of aqueous humor were diluted to 110 μl or 160 μl with the calibrator diluent solution provided with the kit. One hundred microliters of samples and of standards were load into a 96-well plate and recorded in a plate layout. Samples were treated following the assay procedure described in the kit. A microplate reader (GDV, Italy; model DV 990 B/V6) set at 450 nm (wavelength correction at 540 nm) was used for making the calibration and analyzing the samples.
(§2) Pupillary diameter, PGE2, protein, PMN, and MPO were expressed as mean±SEM. Statistical analysis was performed using one way ANOVA followed by a Newman-Keuls post hoc test. Clinical score was expressed as % of eyes and the statistical analysis was performed using Kruskal-Wallis followed by a Dunn post hoc test. P<0.05 was considered statistically significant in both cases. Prism 4 software (GraphPad Software, Inc.) was used for the analysis and graphs.

Myeloperoxidase (MPO) = Myeloperoxidase (MPO) activity in iris-ciliary body, rabbit paracentesis model; conditions: for MPO Unit/g: iris-ciliary body samples collected after the second paracentesis, individual eyes (DX/SX); for MPO activity in iris-ciliary body, Mean: after the second paracentesis
Method: as §1
The activity of MPO was measured as previously described by Williams et al. The iris-ciliary bodies were carefully dried, weighed and immersed in 1 ml of hexa-decyl-trimethyl-ammonium bromide solution. Then, the samples were sonicated for 10 sec on ice by a ultrasound homogenizer (HD 2070, Bandelin electronic), freeze-thawed three times, sonicated for 10 sec and centrifuged at 14,000 g for 10 min to remove cellular debris. An aliquot of the supernatant (40-200 μl) was diluted to 3 ml with the o-dianisidine 2HCl/H2O2 solution. The change in absorbance at 460 nm was continuously monitored for 5 min by a spectrophotometer (UV/Vis Spectrometer Lambda EZ 201; Perkin Elmer). The slope of the line (Δ/min) was determined for each sample and used to calculate the number of units of MPO in the tissue as follows:
were ε=11.3 mM^−1. Values were expressed as units of MPO/g of tissue.
as §2

[3] = test system: protein concentration in the aqueous humor; assay: Protein measurement in aqueous humor, rabbit paracentesis model; conditions: for Protein in aqueous humor, Mean / Protein in aqueous humor: second paracentesis; for Protein in aqueous humor: individual eyes
Method: as §1
For protein concentration determination in the aqueous humor we used the Protein Quantification Kit (Fluka; Cat. No. 77371; Lot. No. 1303129). Five microliters of aqueous humor were diluted to 100 μl with water. Twenty microliters of samples and of standards were load into a 96-well plate and recorded in a plate layout. Samples were treated following the assay procedure described in the kit. A microplate reader (GDV, Italy; model DV 990 B/V6) set at 670 nm was used for making the calibration and analyzing the samples.
as §2

rabbit eye [4] = assay: Clinical evaluation by slit lamp (clinical score), rabbit paracentesis model; parameters: key to Clinical Score −180 min / Clinical Score −5 min / Clinical Score +115 min: 0: normal; 1: discrete dilatation of iris and conjunctival vessels; 2: moderate dilatation of iris and conjunctival vessels; 3: intense iridal hyperemia with flare in the anterior chamber; 4: intense iridal hyperemia with flare in the anterior chamber and presence of fibrinous exudates; conditions: for Clinical Score −5 min: 5 min before the first paracentesis; for Clinical Score −5 min / Clinical Score +115 min / Clinical Score −180 min: individual eyes; for Clinical Score +115 min: 5 min before the second paracentesis; for Clinical Score −180 min: basal
rabbit eye [5] = assay: Pupillary diameter measurement, rabbit paracentesis model; conditions: individual eyes; for Pupillary diameter T2: −5 min: 5 min before the first paracentesis; for Pupillary diameter T3: +115 min: 5 min before the second paracentesis; for Pupillary diameter Δ(T3 − T1): +115 min minus −180 min; for Pupillary diameter T1: −180 min: basal
Method: as §1
The pupillary diameter of both eyes was measured with a Castroviejo caliper 180 min and 5 min before the first paracentesis and 5 min before the second paracentesis.
as §2

leukocytes (PMN) = assay: Leukocytes (PMN) measurement in aqueous humor, rabbit paracentesis model; conditions: second paracentesis; for PMN in aqueous humor: individual eyes
Method: as §1
For the determination of the number of leukocytes we used a haemocytometer (Improved Neubauer Chamber; Bright-line. Hausser Scientific) and a Polyvar 2 microscope (Reichert-Jung).
as §2

[6] = 1 mg/g BOL-303242-X (0.05 mg/dose) topical 4 x daily, individual rabbit, Group D
[7] = 5 mg/g BOL-303242-X ([…]) topical 4 x daily, individual rabbits, Group C
[8] = 0.5% topical formulation, +115 min, 8 eyes

Q: With `Cc1ccc2c(NC[C@](O)(CC(C)(C)c3cc(F)cc4c3OCC4)C(F)(F)F)cccc2n1` [BOL-303242 X] as the molecule, how does the “Day of Death (day euthanized or found dead)” value [1, 6] read?
A: 29

Q: And the “Recorded Notes (mortality)” value [1, 6]?
A: Found dead.

Q: Which “Day of Death (day euthanized or found dead)” value [1, 7] does the source give for `Cc1ccc2c(NC[C@](O)(CC(C)(C)c3cc(F)cc4c3OCC4)C(F)(F)F)cccc2n1` [BOL-30324 2-X] here?
A: 17

Q: What about the “Recorded Notes (mortality)” value [1, 7] of the same molecule?
A: Euthanized due to severe diarrhea.

Q: Which “PGE2 in aqueous humor, statistical significance versus CTR” value ([2]; 0.5% topical formulation) does the source give for `CCOC(=O)O[C@]1(C(=O)OCCl)CC[C@H]2[C@@H]3CCC4=CC(=O)C=C[C@]4(C)[C@H]3[C@@H](O)C[C@@]21C` [LE, loteprednol etabonate, reference compound] here?
A: statistically significant versus CTR

Q: And the “PGE2 in aqueous humor, Mean” value ([2]; 0.5% topical formulation)?
A: 0.672 ng/mL

Q: And the “PGE2 in aqueous humor” value ([2]; 0.5% topical formulation)?
A: ^2N/D and 0.23 ng/ml and 0.68 ng/ml and 1.10 ng/ml

Q: What about the “MPO Unit/g” value (Myeloperoxidase (MPO); 0.5% LE) of the same molecule?
A: 0.30 Unit/g and 0.51 Unit/g and 0.81 Unit/g and 0.60 Unit/g and 0.73 Unit/g and 1.01 Unit/g

Q: What about the “MPO activity in iris-ciliary body, Mean” value (Myeloperoxidase (MPO); 0.5% topical formulation) of the same molecule?
A: 0.661 MPO Unit/g

Q: And the “Protein in aqueous humor, Mean” value ([3]; 0.5% topical formulation)?
A: 33.905 mg/mL

Q: And the “Protein in aqueous humor” value ([3]; 0.5% topical formulation)?
A: 36.14 mg/mL and 39.10 mg/mL and 34.69 mg/mL and 26.10 mg/mL and 26.30 mg/mL and 28.16 mg/mL and 40.90 mg/mL and 39.85 mg/mL

Q: What about the “Clinical Score −5 min” value (rabbit eye [4]; 0.5% topical formulation) of the same molecule?
A: 0

Q: What about the “Clinical Score +115 min” value (rabbit eye [4]; 0.5% topical formulation) of the same molecule?
A: 2 (2×) and 1 (6×)

Q: What about the “Clinical score as percentage of eyes, Score (%) 1” value (rabbit eye [4]; [8]) of the same molecule?
A: 75%

Q: What about the “Clinical score as percentage of eyes, Score (%) 2” value (rabbit eye [4]; [8]) of the same molecule?
A: 25%

Q: And the “Clinical Score −180 min” value (rabbit eye [4]; 0.5% topical formulation)?
A: 0

Q: What about the “Clinical score, difference versus CTR” value (rabbit eye [4]; 0.5% topical formulation, p<0.05) of the same molecule?
A: significant difference versus CTR

Q: What about the “Clinical score as percentage of eyes, Score (%) 0” value (rabbit eye [4]; 0.5% topical formulation, −5 min, 8 eyes) of the same molecule?
A: 100%

Q: What about the “Clinical score as percentage of eyes, Score (%) 0” value (rabbit eye [4]; 0.5% topical formulation, −180 min (basal), 8 eyes) of the same molecule?
A: 100%

Q: What about the “Pupillary diameter T2: −5 min” value (rabbit eye [5]; 0.5% topical formulation) of the same molecule?
A: 6.0 mm (3×) and 6.5 mm (5×)

Q: And the “Pupillary diameter T3: +115 min” value (rabbit eye [5]; 0.5% topical formulation)?
A: 4.5 mm and 5.0 mm (2×) and 5.5 mm (2×) and 6.0 mm (3×)

Q: What about the “Pupillary diameter Δ(T3 − T1)” value (rabbit eye [5]; 0.5% topical formulation) of the same molecule?
A: −1.5 mm (2×) and −1.0 mm (3×) and 0.0 mm and −0.5 mm (2×)

Q: And the “Pupillary diameter T1: −180 min” value (rabbit eye [5]; 0.5% topical formulation)?
A: 6.0 mm (3×) and 6.5 mm (5×)

Q: And the “PMN in aqueous humor, Mean” value (leukocytes (PMN); 0.5% topical formulation)?
A: 28.333 number/μl

Q: What about the “PMN in aqueous humor” value (leukocytes (PMN); 0.5% topical formulation) of the same molecule?
A: 40 number/μl (2×) and 20 number/μl (3×) and 30 number/μl

Q: How did the “PGE2 in aqueous humor, statistical significance versus CTR” value ([2]; 0.03% topical formulation) turn out when `CC(C(=O)O)c1ccc(-c2ccccc2)c(F)c1` (stereo not drawn) [F, flurbiprofen, reference compound] was run?
A: statistically significant versus CTR

Q: And the “PGE2 in aqueous humor, Mean” value ([2]; 0.03% topical formulation)?
A: 1.189 ng/mL

Q: And the “PGE2 in aqueous humor” value ([2]; 0.03% topical formulation)?
A: 1.04 ng/ml and 0.75 ng/ml and 0.85 ng/ml and 1.11 ng/ml and 2.11 ng/ml (2×) and 0.93 ng/ml and 0.61 ng/ml

Q: What about the “MPO Unit/g” value (Myeloperoxidase (MPO); 0.03% F) of the same molecule?
A: 1.10 Unit/g and 1.70 Unit/g and 0.34 Unit/g and 0.75 Unit/g and 0.74 Unit/g and 0.63 Unit/g and 0.73 Unit/g and 1.27 Unit/g

Q: And the “MPO activity in iris-ciliary body, Mean” value (Myeloperoxidase (MPO); 0.03% topical formulation)?
A: 0.906 MPO Unit/g

Q: What about the “Protein in aqueous humor, statistical significance vs CTR” value ([3]; 0.03% topical formulation, p<0.001) of the same molecule?
A: statistical significance

Q: What about the “Protein in aqueous humor, Mean” value ([3]; 0.03% topical formulation) of the same molecule?
A: 20.910 mg/mL

Q: And the “Protein in aqueous humor” value ([3]; 0.03% topical formulation)?
A: 20.78 mg/mL and 28.80 mg/mL and 23.41 mg/mL and 20.21 mg/mL and 17.53 mg/mL and 15.12 mg/mL and 20.52 mg/mL

Q: And the “Clinical Score −5 min” value (rabbit eye [4]; 0.03% topical formulation)?
A: 0

Q: What about the “Clinical Score +115 min” value (rabbit eye [4]; 0.03% topical formulation) of the same molecule?
A: 2

Q: What about the “Clinical score as percentage of eyes, Score (%) 2” value (rabbit eye [4]; 0.03% topical formulation, +115 min, 8 eyes) of the same molecule?
A: 100%

Q: And the “Clinical Score −180 min” value (rabbit eye [4]; 0.03% topical formulation)?
A: 0

Q: And the “Clinical score as percentage of eyes, Score (%) 0” value (rabbit eye [4]; 0.03% topical formulation, −5 min, 8 eyes)?
A: 100%

Q: And the “Clinical score as percentage of eyes, Score (%) 0” value (rabbit eye [4]; 0.03% topical formulation, −180 min (basal), 8 eyes)?
A: 100%

Q: And the “Pupillary diameter T2: −5 min” value (rabbit eye [5]; 0.03% topical formulation)?
A: 6.0 mm (3×) and 6.5 mm (3×) and 7.0 mm and 5.5 mm

Q: And the “Pupillary diameter T3: +115 min” value (rabbit eye [5]; 0.03% topical formulation)?
A: 4.0 mm and 3.5 mm and 5.5 mm (2×) and 5.0 mm (2×) and 4.5 mm and 6.0 mm

Q: And the “Pupillary diameter Δ(T3 − T1)” value (rabbit eye [5]; 0.03% topical formulation)?
A: −1.0 mm (3×) and −1.5 mm (3×) and 0.0 mm (2×)

Q: And the “Pupillary diameter T1: −180 min” value (rabbit eye [5]; 0.03% topical formulation)?
A: 5.0 mm (2×) and 7.0 mm and 6.0 mm (4×) and 5.5 mm

Q: What about the “PMN in aqueous humor, Mean” value (leukocytes (PMN); 0.03% topical formulation) of the same molecule?
A: 30.000 number/μl

Q: And the “PMN in aqueous humor” value (leukocytes (PMN); 0.03% topical formulation)?
A: 50 number/μl and 40 number/μl (2×) and 20 number/μl (2×) and 10 number/μl and 30 number/μl

Source: patent publication US20120065228A1, “COMPOSITIONS AND METHODS FOR TREATING, CONTROLLING, REDUCING, OR AMELIORATING OCULAR INFLAMMATORY WITH LOWER RISK OF INCREASED INTRAOCULAR PRESSURE” (priority 2007, published 2012)
